Consider four compounds from patent publication US10252997B2, “Monocyclic compound” (Takeda Pharmaceutical Company Limited, priority 2015, dated 2019).

One test deals with T1, Human ACC1 (Homo sapiens, UniProt Q13085).
T1 construct: His6 (from vector pFAST-BacHTc; purified on Ni-NTA) (N); made in house; host or cells: SF-9 insect cells, recombinant baculovirus BAC-ACC1
Put plainly: Measurement of ACC1 inhibitory activity (Malonyl-CoA produced, RapidFire-mass spectrometry). Type of test: biochemical. Conditions: 10 μM of the test compound; read-out: ACC1 inhibitory rate (%) at 10 μM. As for the experimental part:
(1) Cloning of Human ACC1 Gene and Preparation of Recombinant Baculovirus
Human ACC1 gene was cloned by PCR using a human liver cDNA library (Clontech) as a template and Primer 1 and Primer 2 shown below. Primer 1 and Primer 2 were prepared by adding SalI, NotI restriction enzyme recognition sequences based on the information of the base sequence of human ACC1 gene (Genbank Accession U19822).
PCR was performed using Pyrobest DNA polymerase (TAKARA BIO INC.). The obtained PCR product was cloned to pT7 Blue vector (Novagen) and after confirmation of the base sequence, digested with restriction enzymes SalI and […]. The obtained DNA fragment was inserted into pFAST-BacHTc (Invitrogen) digested with restriction enzymes SalI and […] to give expression plasmid ACC1/pFAST-BacHTc.
Using the expression plasmid ACC1/pFAST-BacHTc and BAC-TO-BAC Baculovirus Expression System (Invitrogen), virus stock BAC-ACC1 of recombinant Baculovirus was prepared.
(2) Preparation of ACC1 Protein
SF-9 cells (Invitrogen) were inoculated to a medium (10 L) for insect cells (Sf-900IISFM medium (Invitrogen) containing 5% fetal bovine serum (Trace), 50 mg/L Gentamicin (Wako Pure Chemical Industries, Ltd.) and 0.1% Pluronic F-68 (Invitrogen)) at 1.0×10^6 cells/mL, and cultured with shaking in Wave Bioreactor (GE Healthcare) at 27° C., 20 rpm, rocking angle 100, oxygen concentration 30%.
On day 2 of the culture, recombinant Baculovirus BAC-ACC1 was added, and the cells were cultured for 3 days. The culture medium was centrifuged at 4000×g for 10 min to give virus-infected cells. The cells were washed with phosphate buffered saline (Invitrogen) and centrifuged under the same conditions. The obtained cells were cryopreserved at −80° C.
The cryopreserved cells were thawed in ice, and suspended in 800 mL of 25 mM HEPES buffer (pH 7.5) containing 10% Glycerol, 0.3 M NaCl, 1 mM EDTA, 25 mM Sodium β-Glycerophosphate and 1 mM Sodium Orthovanadate, and supplemented with Complete Protease Inhibitor (Roche). The obtained suspension was homogenized two times in a polytron homogenizer (Kinematica) at 20,000 rpm for 20 sec. The obtained cell disruption solution was clarified by centrifugation at 186,000×g for 60 min, and the supernatant was passed through Ni-NTA Superflow Cartridges (5 mL) (QUIAGEN). Furthermore, it was washed with 25 mM HEPES buffer (pH 7.5) containing 20 mM Imidazole and 0.3 M NaCl, and eluted with 25 mM HEPES buffer (pH 7.5) containing 250 mM Imidazol and 0.3 M NaCl. The eluate was concentrated by Amicon Ultra-15 (Nihon Millipore K.K.) having a fraction molecular weight of 50K. The obtained concentrate was subjected to gel filtration with 50 mM HEPES buffer (pH 7.5) containing 10 mM MgCl2, 2 mM dithiothreitol, 10 mM tripotassium citrate and 0.3 M NaCl by using HiLoad 26/60 Superdex200 prep grade gel filtration column (GE Healthcare) to give ACC1. The obtained ACC1 was cryopreserved at −80° C.
(3) Measurement of ACC1 Inhibitory Activity
ACC1 obtained in the above-mentioned (2) was diluted with an enzyme reaction buffer (50 mM HEPES (pH 7.5), 10 mM MgCl2, 10 mM Tripottasium Citrate, 2 mM Dithiothreitol, 0.001% Fatty acid free BSA) to a concentration of 0.2 μg/ml, and the mixture was added to each well of a 384 well assay plate by 10 μl. A test compound dissolved in dimethyl sulfoxide (DMSO) was diluted with an enzyme reaction buffer, and the resulting solution (5 μl) was added to each well. The mixture was incubated at room temperature for 60 min. Then, a substrate solution (50 mM KHCO3, 200 μM ATP, 200 μM Acetyl-CoA, 5 μl) was added to each well, and the mixture was reacted at room temperature for 30 min. The reaction was quenched by adding a reaction quenching liquid (1.3% formic acid, 0.2 μM Malonyl-^13C3-CoA) by 60 μL each to the obtained reaction mixtures (test compound addition group).
In addition, a reaction was performed in the same manner as above and without adding the test compound (test compound non-addition group). […]

The next test deals with HCT116 cells. Put plainly: Growth inhibitory activity on HCT116 cell (CellTiter-Glo). Type of test: cell-based. The note with it: Homo sapiens, HCT-116, 72 h; test compound 1 μM, 3 days; read-out: HCT116 cell proliferation inhibitory rate (%) at 1 μM. As for the experimental part:
The growth inhibitory activity of the compound on HCT116 cell was evaluated by the following method.
HCT116 cells were seeded in a 384 well blackplate at 900 cells/[…]/well, and maintained in an assay medium (RPMI medium (Wako) containing 2% fetal bovine serum, 50 Unit/mL penicillin and […] streptomycin (Invitrogen)). The next day, a test compound dissolved in dimethyl sulfoxide (DMSO) was diluted with the assay medium, and the obtained compound solution was added by […] to each well of a plate containing HCT116 cells, and incubated at 37° C., 5% CO2 (test compound addition group).
A similar reaction was performed without adding a test compound (test compound non-addition group).
Furthermore, a similar reaction was performed under the conditions without adding HCT116 cell and a test compound (control group).
After 3 days, […] of a CellTiter-Glo reagent (Promega KK) was added to the well, and the mixture was stirred for 10 min. Thereafter, the luminescence value of each well was measured by the EnVision™ multilabel counter (Perkin Elmer Inc.).
The HCT116 cell proliferation inhibitory rate (%) of the test compound was determined by the following calculation formula. (1−(luminescence of test compound addition group−luminescence of control group)÷(luminescence of test compound non-addition group−luminescence of control group))×100
The HCT116 cell proliferation inhibitory rates (%) of the test compound (1 μM) are shown below.
Background: ATP-based viability assays read luminescence as a measure of living cells.

For `CC(=O)NC(C)c1ccc(OCc2c(F)cc(Oc3cccc(OCC4CC4)c3)cc2F)cn1` (centres unmarked) [Example 69, N-(1-(5-((4-(3-(cyclopropylmethoxy)phenoxy)-2,6-difluorobenzyl)oxy)pyridin-2-yl)ethyl)acetamide], the inhibition at 10 µM at Human ACC1 was 96%. Besides, in the test with HCT116 cells, the inhibition at 1 µM worked out at 28%.
For `CC(=O)NC(C)c1cnc(OCc2c(F)cc(Oc3cccc(OCC4CC4)c3)cc2F)c(F)c1` (centres unmarked) [Example 73, N-(1-(6-((4-(3-(cyclopropylmethoxy)phenoxy)-2,6-difluorobenzyl)oxy)-5-fluoropyridin-3-yl)ethyl)acetamide] the same measures were 98% and 31%.
For `CC(=O)NC(C)c1ccc(OCc2c(F)cc(Oc3cccc(OCC4CC4)c3)cc2F)nn1` (centres unmarked) [Example 78, N-(1-(6-((4-(3-(cyclopropylmethoxy)phenoxy)-2,6-difluorobenzyl)oxy)pyridazin-3-yl)ethyl)acetamide] the same measures were 97% and 12%.
In the same order, the values of `CC(=O)NC(C)CCc1coc(-c2ccc(Oc3cccc(OCC4CC4)c3)cc2)n1` (centres unmarked) [Example 83, N-(4-(2-(4-(3-(cyclopropylmethoxy)phenoxy)phenyl)-1,3-oxazol-4-yl)butan-2-yl)acetamide] are 97% and 28%.
